Assays:
[1] = test system: COS-7 cells; test: Ad-GFP adenovirus infection of COS-7 cells (Western blot, fluorescence microscopy, flow cytometry); type: cell-based
Protocol: (§1) Adenoviruses (1 m.o.i. or approximately 1×10^6 pfu per 60 mm dish) were pre-complexed with the peptides (0.05 to 5 mM) in 100 μl of serum free media (OptiMEM; Gibco, Grand Island, N.Y.) for 30 min at room temperature. Cells (COS-7 or BAEC) were grown on 60 mm dishes until 90% confluent and media was changed to serum free (2 ml) before exposure to the adenovirus complex. The complex (100 μl) was added to the cells for 4 hrs and then the cells were washed and changed to complete growth media for 24 to 48 hours.
(§2) Western blotting was performed as described previously (16). Briefly, cells were lysed (50 mM Tris-HCl, 0.1 mM EDTA, 0.1 mM EGTA, 1% (v/v) Nonidet P-40, 0.1% SDS, 0.1% deoxycholic acid, 1 mM Pefabloc, 10 μg/ml aprotinin, and 10 μg/ml leupeptin) for 1 hr at 4° C. and the soluble material was separated on a 10% SDS-PAGE, and transferred to a nitrocellulose membrane. Blocked membranes were probed using the specific polyclonal anti-GFP (Clontech, Palo Alto, Calif.) or the monoclonal anti-hsp90(Stressgen, Victoria, Canada) antibodies. After washing and incubating with secondary antibodies, immunoreactive proteins were visualized by ECL detection system (Amersham, Buckinghamshire, UK).
(§3) Live cells infected with Ad-GFP were washed with serum free media and visualized using a Zeiss Axiovert 200 microscope under phase contrast or GFP filters (excitation 450 nm, emission 510 nm). Images were captured using the Openlab Imaging software (Improvision, Lexington, Mass.). Flow cytometric analysis of GFP expressing cells was performed 48 h after following infection. Cells were trypsinized, PBS washed and fixed in 70% ethanol at 4° C. Cells were resuspended in PBS and were analyzed by gating for GFP fluorescence by flow cytometry using a FACSort (Becton Dickinson, San Jose, Calif.).

[2] = test system: bovine aortic endothelial cells (BAEC); test: Ad-GFP adenovirus infection of bovine aortic endothelial cells (Western blot); type: cell-based; settings: AP/Ad-GFP complex
Protocol: as §1, §2

[3] = test system: bovine aortic endothelial cells (BAEC); test: Nitric oxide release from BAEC infected with Ad-eNOS or Ad-GFP; type: cell-based
Protocol: as §1
Basal NO2^− release from BAEC, a stable metabolite of NO, was assessed in the medium as described (9). In all experiments, release was attenuated by a NOS inhibitor.

[4] = test system: adductor muscle; test: Intramuscular Ad-β-gal reporter virus injection into mouse adductor muscle; type: in vivo; settings: Ad-β-gal 5×10^7 pfU in 25 μl, three sites, pre-complexed with AP 10 μM
Protocol: (§4) -galactosidase expression was monitored by either X-Gal staining or activity 4 days after virus administration as described previously (14,18).
(§5) Ischemic hind limb model was performed as described previously (19). Briefly, following anesthesia, the left femoral artery was exposed under a dissection microscope. The proximal end of the femoral artery and the distal portion of the saphenous artery were ligated. All branches between these two sites were cauterized, and arteriectomy was performed. Following arteriectomy, 25 μl of either virus storage buffer, Ad-VEGF (5.5×10^7 pfu), Ad- -ga l (2.5×10^7 pfu), pre-complexed with AP (30 min room temperature; 10 μM) or AP alone (at least 5 animals per group) was injected into the adductor muscle at 3 different sites. Mice were sacrificed 21 days following surgery and muscles of the lower limbs were harvested, methanol fixed and paraffm embedded. Tissue sections (5 μm thick) were stained using an anti-CD31 antibody (Pharmingen, San Diego, Calif.), and hematoxylin counter stained. Pictures from 4 random areas of each section, and 3 sections per mice were taken using a Kodak digital camera mounted on a light microscope (40× objective). Capillary density was quantified by measuring the percentage of CD31 positive area out of total area using the Matlab software (The Math Works, Inc.).

[5] = test system: blood vessels of the lower limbs (PECAM/CD31 positive area); test: Ischemic hind limb angiogenesis assay with intramuscular Ad-VEGF; type: in vivo, mouse; settings: intramuscular Ad-VEGF 5.5×10^7 pfu in presence of AP, hind limb ischemia
Protocol: as §5

[6] = test system: human umbilical vascular endothelial cells (HUVEC); test: Ret-GFP retrovirus infection of HUVEC (Western blot, fluorescence microscopy); type: cell-based
Protocol: For retroviral infections supernatant from phoenix retroviral packaging cell line expressing […] was incubated for 30 min at 37 C in presence of AP (0.1-0.5 mM). HUVEC cells were exposed to the mixture for 24 hrs and then harvested.
as §2
as §3, with “Flow cytometric analysis of GFP expressing cells was performed 48 h after following infection. Cells were trypsinized, PBS washed and fixed in 70% ethanol at 4° C.” left out

[7] = test system: carotid arteries from eNOS -/- mice; test: Isometric studies: acetylcholine-induced relaxation of eNOS -/- carotid arteries transduced with Ad-eNOS; set-up: species or system mouse; settings: carotid arteries of eNOS (-/-) mice luminally transduced with Ad-eNOS, without or pre-complexed with AP
Protocol: (§6) The common carotid artery was cannulated, flushed with a small amount (˜3 μl) of virus and tied off proximally. Approximately 3 μl of Ad-β-gal (1×10^9 pfu/ml), Ad-GFP (1×10^9 pfu/ml), Ad-eNOS (5×10^10 pfu/ml) virus or virus complexed with AP (10 μM) for 30 min at room temperature was injected. The virus-filled vessel was incubated in situ at 37° C. for 2 hours and then rinsed in saline prior to overnight (18 hours) incubation in complete DMEM at 37° C., 5% CO2. Control vessels were filled with viral storage buffer and treated in an identical manner.
Rings of carotid artery were studied as described previously (17). To assess endothelial function, vessels were precontracted with a submaximal (˜80%) concentration of PGF2α (5×10^−6 mol/L) prior to application of endothelium-dependent dilator acetylcholine (10^−10−3×10^−6 mol/L).

[8] = test system: mouse carotid artery endothelium; test: Endothelium specific gene transfer of mouse carotid arteries ex vivo (Ad-GFP, Ad-β-gal)
Protocol: as §6, §4

[9] = test system: vascular permeability in mouse ear; test: Permeability assay: Evans blue leakage in mouse ear after intradermal Ad-VEGF; type: in vivo
Protocol: Ad-VEGF (5.5×10^7 pfu) or Ad-β-gal (2.5×10^7 pfu) with or without AP complex (10 μM; 30 minutes at room temperature) was injected intradermally into the ear of CD1 mouse. Evans blue leakage was monitored 4 days after infection as described previously (9).

Row | Sequence | increasing Ad-GFP infection (GFP western blot), compared with AP ([1]; Tat peptide 0.1 and 0.5 mM, COS-7) | GFP expression levels (western blotting) compared to Ad-GFP alone [2] | Ad-eNOS mediated NO release from cultured endothelial cells ([3]; 1 m.o.i. of eNOS virus in absence or presence of AP) | NO release with control virus Ad-GFP ([3]; Ad-GFP 1 m.o.i. in absence or presence of AP) | staining for β-galactosidase activity in adductor muscle [4] | PECAM positive vessels compared to Ad-VEGF alone [5] | GFP expression (western blot) ([6]; AP 0.05-0.5 mM added to Ret-GFP viral supernatant (approximately 10^6-10^7 pfu/ml)) | GFP positive cells (fluorescence microscopy) ([6]; AP/Ret-GFP complex) | endothelium dependent dilation in response to acetylcholine (Ach) [7] | infectivity of the Ad-GFP virus (en face fluorescence imaging) ([8]; Ad-GFP 10^9 pfu/ml pre-complexed with AP 10 μM, luminal, ex vivo) | X-Gal staining in the endothelial cell layer (tissue cross section) ([8]; Ad-β-gal 10^9 pfu/ml, AP pre-treatment, ex vivo) | β-galactosidase activity increase over Ad-β-gal infection alone ([8]; carotid arteries treated with AP/Ad-β-gal complex) | expression of GFP (western blotting) ([1]; AP 0.05 to 5.0 mM pre-incubated 30 min with Ad-GFP 1 m.o.i., diluted 20 fold into medium, COS-7) | increase in cells strongly positive for GFP (M2), flow cytometry ([1]; Ad-GFP 1 m.o.i. pre-complexed with AP vs Ad-GFP alone, COS-7) | numbers of GFP positive cells (fluorescent microscopy) compared to virus alone ([1]; Ad-GFP pre-incubated with 0.5 mM AP, COS-7) | GFP expression when cells exposed to AP prior to or after Ad-GFP infection (no pre-complex step) ([1]; COS-7, Ad-GFP) | increase of basal vascular permeability over Ad-VEGF alone ([9]; AP complexed with Ad-VEGF, mouse ear) | ability of VEGF to promote vascular leak (extravasation of Evans blue) ([9]; Ad-VEGF 5.5×10^7 pfu with AP, intradermal, 4 days)
1 | GRKKRRQRRRPPQ (Human immunodeficiency virus) [Tat peptide, synthetic peptide, HIV Tat amino acids 48-60] | as efficient as AP | – | – | – | – | – | – | – | – | – | – | – | – | – | – | – | – | –
2 | RQIKIWFQNRRMKWKK [AP] | – | marked increase | improves | does not influence | increased | > 4 fold | dose-dependently enhanced | substantial increase | improved | markedly improved | increased staining | two | dose-dependently improved | ~10 fold | increased numbers | did not yield an increase | 2.5 fold | significantly enhanced
